Assay [1] relates to cell lines that carry the translocation t(14;18) (DoHH2, Su-DHL-6, Su-DHL-16, Ly8). Put plainly: Viability / apoptosis of human lymphoma lines after in vitro treatment. Type of assay: cell-based. The following applies: for induction of apoptosis / cell death in vitro, single agent: FL-derived cell lines, 1 μM; for selectivity for cell lines carrying translocation t(14;18): panel of human lymphoma lines, viability after 24 h.
Method: Cell culture, cell cycle and viability assays. Lymphoma cell lines DoHH2, Ly-8, Su-DHL-6, Su-DHL-16, Su-DHL-8 and Su-DHL-10 were maintained in RPMI 1640 with 10% fetal bovine serum, 1% L-Glutamine and 1% penicillin/streptomycin. […] Briefly, cells were seed at 5×10^5 per mL and they were treated with PD-0332991 and/or ABT-737 and/or Obatoclax. After 24 h of treatment cell viability was assessed using CellTiter-Glo reagent (Promega).

The subject of the next assay is xenografted DoHH2 tumors. Description: DoHH2 xenograft treatment study. The following applies: for course of tumors after the treatment course / durability of response / tumor growth during the treatment course: PD 150 mg/kg p.o., ABT 50 mg/kg i.v., alternate days, days 1-14. Type of assay: in vivo, NOD/SCID mice. As for the experimental part: Xenografts and treatment studies. Xenograft mice were generated as described (Schatz et al., J Exp Med 208:1799-1807 (2011)); briefly, s.c. injection of 5 Mio DoHH2 or SU-DHL-8 human lymphoma cells mixed with matrigel (BD Bioscience, 354230) into the flanks of NOD/SCID (NOD.CB17-Prkdc^scid/J) mice. […] The control animals were treated with 50 mmol/L sodium lactate (pH4), PTD solution and 5% of Dextrose in water solution respectively. Tumors were weighed and volumes were measured twice weekly.
The translocation t(14;18) is the cytogenetic hallmark of FL and promotes lymphoma cell survival by activating the anti-apoptotic BCL2 protein. BH3 mimetic drugs like ABT-737 block BCL2 function by inserting into the BH3-binding groove of anti-apoptotic BCL2 proteins (Oltersdorf et al., Nature 435:677-681 (2005)).

Assay [2] concerns DoHH2, Su-DHL6, Su-DHL-16, and Ly8 cells. Description: Cell cycle assay in human lymphoma cell lines. Type of assay: cell-based.
Method: Cell culture, cell cycle and viability assays. Lymphoma cell lines DoHH2, Ly-8, Su-DHL-6, Su-DHL-16, Su-DHL-8 and Su-DHL-10 were maintained in RPMI 1640 with 10% fetal bovine serum, 1% L-Glutamine and 1% penicillin/streptomycin. Human lymphoma cell lines treated with PD-0332991 and Obatoclax were analyzed for cell viability and cell cycle assays. Briefly, cells were seed at 5×10^5 per mL and they were treated with PD-0332991 and/or ABT-737 and/or Obatoclax. After 24 h of treatment cell viability was assessed using CellTiter-Glo reagent (Promega). Cell cycle assay based on uptake of DNA staining dye using Cell Cycle Reagent assays (cat. 4700-0169 from Guava Technologies, Millipore) was performed following to manufacturer instructions.
For assay [3], the system named is RB phosphorylation (Ser 780). Put plainly: Immunoblot for RB phosphorylation in treated lymphoma cells. Type of assay: cell-based, human. The following applies: DoHH2, Su-DHL6, Su-DHL-16, Ly8 cells treated with PD-0332991.
Method: Western blot analysis. Immunoblots were performed from whole cell lysates or tissue samples as described (Steidl et al., Nature 471:377-381 (2011)). Briefly, 30 μg of protein/sample were resolved on SDS-PAGE gels and transferred to Immobilon-P-membranes (Millipore). Antibodies were against Rb (Cell Signaling cat #9309), Phospho-Rb S780 (Cell Signaling cat #3590), Phospho-Rb S795 (Cell Signaling cat #7986), CDK4 (Cell Signaling cat #2906), CyclinD3 (Cell Signaling cat #2936), Cyclin D1 (Cell Signaling cat #2926), Cyclin D2 (Cell Signaling cat #2924) p16 (Santa Cruz Biotechnology cat # sc 1207), Caspase 3 (Cell Signaling cat #9662) Tubulin (1:5000; Sigma, B-5-1-2). Enhanced chemiluminescence was used for detection (ECL, Amersham).
The next assay deals with vavBcl2/CDK4 lymphoma. Description: Treatment of primary murine vavBcl2/CDK4 lymphomas in vivo. Conditions: lymphocyte counts.
The test system of another assay is vavBcl2/c-MYC lymphomas. Description: Treatment of primary murine vavBcl2/c-MYC lymphomas in vivo. As for the experimental part:
Generation of mice. The vavP Bcl2 mouse model of FL (Lowe et al., Nature 432:307-315 (2004)) was adapted to adoptive transfer of retrovirally transduced HPCs^1. Data were analyzed in Kaplan-Meier format using the log-rank (Mantel-Cox) test for statistical significance. H&E, Ki67, TUNEL, P-RB, and surface marker analysis were as in (Staudt, N Engl J Med 356:741-742 (2007)).
Most FL cell lines are derived from transformed FLs and are carry the hallmark translocation t(14;18). These include DoHH2, Su-DHL-6, Su-DHL-16 and Ly 8 cells. These lines also have high levels of CDK4, CDK6, and phosphorylated RB (S780 and S795) (FIG. 10A) and DoHH2 cells carry a homozygous p16 deletion (Gronbaek et al., Leukemia 14:1727-1735 (2000)). To examine the effect of targeted therapies, the inventors first treated DoHH2, Su-DHL6, Su-DHL-16, and Ly8 cells with increasing doses of PD-0332991. […] Further, knockdown of either CDK4 or CDK6 alone was not sufficient for cell cycle arrest indicating functional compensation between these homologous RB kinases and the requirement to block both (FIG. 10I/J). Given the limitations of transformed FL-derived lines, the inventors also tested PD-0332991 against primary murine vavBcl2 induced lymphomas in vivo.

Some results are limits rather than exact numbers.

For the compound `CN(C)CC[C@H](CSc1ccccc1)Nc1ccc(S(=O)(=O)NC(=O)c2ccc(N3CCN(Cc4ccccc4-c4ccc(Cl)cc4)CC3)cc2)cc1[N+](=O)[O-]` [ABT-737], in assay [1], the “induction of apoptosis / cell death in vitro, single agent” value was “powerfully induced apoptosis and caspase cleavage”; the “selectivity for cell lines carrying translocation t(14;18)” value is reported as “selective activity against cell lines that carry the translocation t(14;18)”. Further, in the assay with xenografted DoHH2 tumors, the “course of tumors after the treatment course / durability of response” value is “residual tumors rapidly expanded thereafter” and the “tumor growth during the treatment course” value is listed as “somewhat restrained tumor growth”. In addition, the “cell death in tumors in vivo (caspase cleavage, TUNEL)” value in the assay with xenografted DoHH2 tumors (tumors at end of treatment) is “significant cell death”.
As for `COC1=CC(c2cc3ccccc3[nH]2)=N/C1=C\c1[nH]c(C)cc1C` [Obatoclax], in assay [1], the “induction of apoptosis / cell death in vitro, single agent” value was “potently induced cell death” and the “selectivity for cell lines carrying translocation t(14;18)” value is recorded as “less selective for cells carrying the translocation t(14;18)”.
For the compound `CC(=O)c1c(C)c2cnc(Nc3ccc(N4CCNCC4)cn3)nc2n(C2CCCC2)c1=O` [PD-0332991], the “cell cycle arrest after RB knockdown” value in assay [2] (DoHH2 cells expressing RB shRNA, PD-0332991 1 μM) was “knockdown of RB bypassed the cell cycle arrest”. Also, the “growth and cell cycle profile” value in assay [2] (increasing doses of PD-0332991, 24 h, all four lines) is “complete growth arrest and accumulation in the G1 phase”. Further, in assay [3], the “RB phosphorylation in cells” value was “loss of RB phosphorylation”. In addition, in the assay with xenografted DoHH2 tumors, the “course of tumors after the treatment course / durability of response” value is recorded as “residual tumors rapidly expanded thereafter” and the “tumor growth during the treatment course” value is “somewhat restrained tumor growth”. The “RB phosphorylation (Ser 780) in tumors in vivo” value in the assay on xenografted DoHH2 tumors (immunoblot on lysates of treated tumors) is “complete loss of RB phosphorylation (Ser 780)”. Besides, the “proliferation by Ki67 in tumors in vivo” value in the assay on xenografted DoHH2 tumors (immunohistochemistry at end of treatment) is “slowed proliferation by Ki67”. Besides, the “response of lymphoma bearing animals” value in the assay with vavBcl2/CDK4 lymphoma was “induced responses”. Also, the “response of lymphoma bearing animals” value with vavBcl2/c-MYC lymphomas (histologically transformed vavBcl2/c-MYC lymphomas) is on record as “ineffective”. Also, the “time by which all animals succumbed to disease” value with vavBcl2/c-MYC lymphomas (vav-Bcl2/Myc tumor bearing animals treated with PD-0332991) is at most 10 days.

The values above are taken from patent US9241941B2, “Methods for treatment of lymphomas with mutations in cell cycle genes” (priority 2012, dated 2016).
